# Laboratory results published in publication PMC6979384, “Characterization of the plant homeodomain (PHD) reader family for their histone tail interactions” (Epigenetics & Chromatin, 2020).
# Where no end group is shown, it is not given here. [ ]: non-standard residue; d: D form. Lys(Me3) = C[N+](C)(C)CCCC[C@H](N)C(=O)O; pT = C[C@@H](OP(=O)(O)O)[C@H](N)C(=O)O; Lys(Me) = CNCCCC[C@H](N)C(=O)O
# Experiments:
# Assay in all cases: Histone peptide microarray
# Assay type in all cases: binding, human
# [1] = tested on: AIRE (PP)
# How it was run: (§1)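 Recombinant GST-PHD protein at 0.5 μM; 293-member modified histone peptide array; signals averaged from four repeats ± SD.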
# [2] = tested on: BAZ2B
# How it was run: as §1
# [3] = tested on: BPTF (PB)
# How it was run: as §1
# [4] = tested on: CHD4 (PPCC)
# How it was run: as §1
# [5] = tested on: CHD5 (PCC)
# How it was run: as §1
# [6] = tested on: CHD5 (PPCC)
# How it was run: as §1
# [7] = tested on: DIDO1
# How it was run: as §1
# [8] = tested on: DPF2 (PPC2W2)
# How it was run: as §1
# [9] = tested on: ING1
# How it was run: as §1
# [10] = tested on: ING2
# How it was run: as §1
# [11] = tested on: ING3
# How it was run: as §1
# [12] = tested on: ING4
# How it was run: as §1
# [13] = tested on: ING5
# How it was run: as §1
# [14] = tested on: KDM4C (TTP)
# How it was run: as §1
# [15] = tested on: KDM5A (1)
# How it was run: as §1
# [16] = tested on: KDM5A (3)
# How it was run: as §1
# [17] = tested on: KDM5B (1)
# How it was run: as §1
# [18] = tested on: KDM5B (3)
# How it was run: as §1
# [19] = tested on: KDM7A
# How it was run: as §1
# [20] = tested on: MLL5
# How it was run: as §1
# [21] = tested on: MORC3 (CW)
# How it was run: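 GST-tagged PHD finger readers were expressed, purified and applied at 0.5 μM to a microarray of 293 synthetic histone peptides carrying single or combinatorial PTMs, using an optimized protocol. Binding signals are averages with standard deviation from 4 replicates.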
# [22] = tested on: PHF13
# How it was run: as §1
# [23] = tested on: PHF21A
# How it was run: as §1
# [24] = tested on: PHF23
# How it was run: as §1
# [25] = tested on: PHF2
# How it was run: as §1
# [26] = tested on: PHF8
# How it was run: as §1
# [27] = tested on: PHRF1 (RP)
# How it was run: as §1
# [28] = tested on: RAG2
# How it was run: as §1
# [29] = tested on: SP140L
# How it was run: as §1
# [30] = tested on: TAF3
# How it was run: as §1
# [31] = tested on: TRIM66 (PB)
# How it was run: as §1
# [32] = histone peptide array, GST-tagged reader, arrays performed twice, n of 4
# [33] = histone peptide array, GST-tagged reader, PB = PHD + Bromodomain, arrays performed twice, n of 4
# [34] = histone peptide array, GST-tagged reader, PPCC = Dual PHD + Dual Chromodomain, arrays performed twice, n of 4
substance,measurement,setting,value
"H3.3K36me3 (27-45): H3.3 27-45 (KSAPSTGGV[Lys(Me3)]KPHRYRPGT; UniProt P84243 28-46, looked up, fragment)","Array Heatmap signal, AIRE (PP)",[1]; [32],0.5852
same,"Array Heatmap signal, BAZ2B",[2]; [32],0.5018
same,"Array Heatmap signal, BPTF (PB)",[3]; [33],0.3644
same,"Array Heatmap signal, CHD4 (PPCC)",[4]; [34],0.6082
same,"Array Heatmap signal, CHD5 (PCC)","[5]; histone peptide array, GST-tagged reader, PCC = PHD + Dual Chromodomain, arrays performed twice, n of 4",0.837
same,"Array Heatmap signal, CHD5 (PPCC)",[6]; [34],0.5971
same,"Array Heatmap signal, DIDO1",[7]; [32],0.6308
same,"Array Heatmap signal, DPF2 (PPC2W2)","[8]; histone peptide array, GST-tagged reader, PPC2W2 = Dual PHD + C2W2-type Zn-finger, arrays performed twice, n of 4",0.6714
same,"Array Heatmap signal, ING1",[9]; [32],0.5245
same,"Array Heatmap signal, ING2",[10]; [32],0.6059
same,"Array Heatmap signal, ING3",[11]; [32],0.4806
same,"Array Heatmap signal, ING4",[12]; [32],0.493
same,"Array Heatmap signal, ING5",[13]; [32],0.3836
same,"Array Heatmap signal, KDM4C (TTP)","[14]; histone peptide array, GST-tagged reader, TTP = Tandem Tudor domain + PHD, arrays performed twice, n of 4",0.5574
same,"Array Heatmap signal, KDM5A (1)",[15]; [32],0.5417
same,"Array Heatmap signal, KDM5A (3)",[16]; [32],0.4596
same,"Array Heatmap signal, KDM5B (1)",[17]; [32],0.6389
same,"Array Heatmap signal, KDM5B (3)",[18]; [32],0.5477
same,"Array Heatmap signal, KDM7A",[19]; [32],0.4319
same,"Array Heatmap signal, MLL5",[20]; [32],0.5409
same,"Array Heatmap signal, MORC3 (CW)","[21]; histone peptide array, GST-tagged reader, CW = CW-type Zn-finger, arrays performed twice, n of 4",0.4025
same,"Array Heatmap signal, PHF13",[22]; [32],0.6344
same,"Array Heatmap signal, PHF21A",[23]; [32],0.5086
same,"Array Heatmap signal, PHF23",[24]; [32],0.5271
same,"Array Heatmap signal, PHF2",[25]; [32],0.459
same,"Array Heatmap signal, PHF8",[26]; [32],0.3825
same,"Array Heatmap signal, PHRF1 (RP)",[27]; [32],0.4414
same,"Array Heatmap signal, RAG2",[28]; [32],0.254
same,"Array Heatmap signal, SP140L",[29]; [32],0.3873
same,"Array Heatmap signal, TAF3",[30]; [32],0.2966
same,"Array Heatmap signal, TRIM66 (PB)",[31]; [33],0.5777
"H3.3T32pK36me1 (27-45): H3.3 27-45 (KSAPS[pT]GGV[Lys(Me)]KPHRYRPGT; UniProt P84243 28-46, looked up, fragment)",Array Heatmap value (peptide array signal),"[1]; AIRE (PP), sheet ""Array Heatmap"", each array performed twice, total n = 4",0.3866
same,Array Heatmap value (peptide array signal),"[2]; BAZ2B, sheet ""Array Heatmap"", each array performed twice, total n = 4",0.3924
same,Array Heatmap value (peptide array signal),"[3]; BPTF (PB), sheet ""Array Heatmap"", each array performed twice, total n = 4",0.2876
same,Array Heatmap value (peptide array signal),"[4]; CHD4 (PPCC), sheet ""Array Heatmap"", each array performed twice, total n = 4",0.5131
same,Array Heatmap value (peptide array signal),"[5]; CHD5 (PCC), sheet ""Array Heatmap"", each array performed twice, total n = 4",0.7362
same,Array Heatmap value (peptide array signal),"[6]; CHD5 (PPCC), sheet ""Array Heatmap"", each array performed twice, total n = 4",0.4567
same,Array Heatmap value (peptide array signal),"[7]; DIDO1, sheet ""Array Heatmap"", each array performed twice, total n = 4",0.6188
same,Array Heatmap value (peptide array signal),"[8]; DPF2 (PPC2W2), sheet ""Array Heatmap"", each array performed twice, total n = 4",0.6269
same,Array Heatmap value (peptide array signal),"[9]; ING1, sheet ""Array Heatmap"", each array performed twice, total n = 4",0.4774
same,Array Heatmap value (peptide array signal),"[10]; ING2, sheet ""Array Heatmap"", each array performed twice, total n = 4",0.5942
same,Array Heatmap value (peptide array signal),"[11]; ING3, sheet ""Array Heatmap"", each array performed twice, total n = 4",0.3966
same,Array Heatmap value (peptide array signal),"[12]; ING4, sheet ""Array Heatmap"", each array performed twice, total n = 4",0.3862
same,Array Heatmap value (peptide array signal),"[13]; ING5, sheet ""Array Heatmap"", each array performed twice, total n = 4",0.288
same,Array Heatmap value (peptide array signal),"[14]; KDM4C (TTP), sheet ""Array Heatmap"", each array performed twice, total n = 4",0.4138
same,Array Heatmap value (peptide array signal),"[15]; KDM5A (1), sheet ""Array Heatmap"", each array performed twice, total n = 4",0.4102
same,Array Heatmap value (peptide array signal),"[16]; KDM5A (3), sheet ""Array Heatmap"", each array performed twice, total n = 4",0.429
same,Array Heatmap value (peptide array signal),"[17]; KDM5B (1), sheet ""Array Heatmap"", each array performed twice, total n = 4",0.6155
same,Array Heatmap value (peptide array signal),"[18]; KDM5B (3), sheet ""Array Heatmap"", each array performed twice, total n = 4",0.4083
same,Array Heatmap value (peptide array signal),"[19]; KDM7A, sheet ""Array Heatmap"", each array performed twice, total n = 4",0.3406
same,Array Heatmap value (peptide array signal),"[20]; MLL5, sheet ""Array Heatmap"", each array performed twice, total n = 4",0.508
same,Array Heatmap value (peptide array signal),"[21]; MORC3 (CW), sheet ""Array Heatmap"", each array performed twice, total n = 4",0.3018
same,Array Heatmap value (peptide array signal),"[22]; PHF13, sheet ""Array Heatmap"", each array performed twice, total n = 4",0.5172
same,Array Heatmap value (peptide array signal),"[23]; PHF21A, sheet ""Array Heatmap"", each array performed twice, total n = 4",0.4142
same,Array Heatmap value (peptide array signal),"[24]; PHF23, sheet ""Array Heatmap"", each array performed twice, total n = 4",0.4636
same,Array Heatmap value (peptide array signal),"[25]; PHF2, sheet ""Array Heatmap"", each array performed twice, total n = 4",0.4286
same,Array Heatmap value (peptide array signal),"[26]; PHF8, sheet ""Array Heatmap"", each array performed twice, total n = 4",0.3083
same,Array Heatmap value (peptide array signal),"[27]; PHRF1 (RP), sheet ""Array Heatmap"", each array performed twice, total n = 4",0.3716
same,Array Heatmap value (peptide array signal),"[28]; RAG2, sheet ""Array Heatmap"", each array performed twice, total n = 4",0.206
same,Array Heatmap value (peptide array signal),"[29]; SP140L, sheet ""Array Heatmap"", each array performed twice, total n = 4",0.3216
same,Array Heatmap value (peptide array signal),"[30]; TAF3, sheet ""Array Heatmap"", each array performed twice, total n = 4",0.2218
same,Array Heatmap value (peptide array signal),"[31]; TRIM66 (PB), sheet ""Array Heatmap"", each array performed twice, total n = 4",0.5132
